Assay [1] deals with intracellular phosphorylation of EGFR (Tyr1068) in PC-9 cells (Homo sapiens, UniProt P00533, DEL746-750). The assay can be described thus: PC-9 pEGFR AlphaLISA assay. The conditions noted are these: 4 hours incubation, read-out: Phos EGFR PC9 IC50. It counts as cell-based. The method in brief:
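PC-9 cells (EGFR del746-750) in phenol-free DMEM/10% FBS, adhered overnight, then exposed to 10-point 4-fold compound dilutions for 4 h at 37 °C. Lysates assayed for pEGFR Tyr1068 by AlphaLISA SureFire Ultra; IC50 from percent pEGFR inhibition vs log concentration.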
For orientation: Bead proximity is the source of the signal in Alpha formats.

The target in another assay is T1, EGFR L858R (Homo sapiens, UniProt P00533, L858R).
T1 construct: purchased SignalChem E10-122BG
Kind of assay: Biochemical EGFR inhibition assay (Caliper mobility shift), EGFR L858R. As to conditions: biochemical Caliper mobility shift assay, EGFR L858R enzyme; read-out: Enz EGFR L858R IC50. The method in brief:
(§1)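 Peptide phosphorylation by the mutant enzyme is followed at 25 °C with either 1.0 mM ATP or ATP at Km, in HEPES pH 7.5 containing 0.015% Brij-35 and 1.0% DMSO. After 10–20% substrate turnover, 35 mM EDTA ends the reaction and mobility shift quantifies product.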

The next assay addresses T2, EGFR (d746-750) (Homo sapiens, UniProt P00533, DEL746-750).
T2 construct: purchased SignalChem E10-122JG
The assay can be described thus: Biochemical EGFR inhibition assay (Caliper mobility shift), EGFR (d746-750). As to conditions: biochemical Caliper mobility shift assay, EGFR Exon 19-del enzyme; read-out: Enz EGFR Exon 19-del IC50. The method in brief: as §1

In US20260207602A1, “EGFR INHIBITORS” (Blueprint Medicines Corporation, priority 2022, published 2026) one finds IC50 data, which are given here for 24 molecules.

T1 sequence (P00533 25-1210 L858R): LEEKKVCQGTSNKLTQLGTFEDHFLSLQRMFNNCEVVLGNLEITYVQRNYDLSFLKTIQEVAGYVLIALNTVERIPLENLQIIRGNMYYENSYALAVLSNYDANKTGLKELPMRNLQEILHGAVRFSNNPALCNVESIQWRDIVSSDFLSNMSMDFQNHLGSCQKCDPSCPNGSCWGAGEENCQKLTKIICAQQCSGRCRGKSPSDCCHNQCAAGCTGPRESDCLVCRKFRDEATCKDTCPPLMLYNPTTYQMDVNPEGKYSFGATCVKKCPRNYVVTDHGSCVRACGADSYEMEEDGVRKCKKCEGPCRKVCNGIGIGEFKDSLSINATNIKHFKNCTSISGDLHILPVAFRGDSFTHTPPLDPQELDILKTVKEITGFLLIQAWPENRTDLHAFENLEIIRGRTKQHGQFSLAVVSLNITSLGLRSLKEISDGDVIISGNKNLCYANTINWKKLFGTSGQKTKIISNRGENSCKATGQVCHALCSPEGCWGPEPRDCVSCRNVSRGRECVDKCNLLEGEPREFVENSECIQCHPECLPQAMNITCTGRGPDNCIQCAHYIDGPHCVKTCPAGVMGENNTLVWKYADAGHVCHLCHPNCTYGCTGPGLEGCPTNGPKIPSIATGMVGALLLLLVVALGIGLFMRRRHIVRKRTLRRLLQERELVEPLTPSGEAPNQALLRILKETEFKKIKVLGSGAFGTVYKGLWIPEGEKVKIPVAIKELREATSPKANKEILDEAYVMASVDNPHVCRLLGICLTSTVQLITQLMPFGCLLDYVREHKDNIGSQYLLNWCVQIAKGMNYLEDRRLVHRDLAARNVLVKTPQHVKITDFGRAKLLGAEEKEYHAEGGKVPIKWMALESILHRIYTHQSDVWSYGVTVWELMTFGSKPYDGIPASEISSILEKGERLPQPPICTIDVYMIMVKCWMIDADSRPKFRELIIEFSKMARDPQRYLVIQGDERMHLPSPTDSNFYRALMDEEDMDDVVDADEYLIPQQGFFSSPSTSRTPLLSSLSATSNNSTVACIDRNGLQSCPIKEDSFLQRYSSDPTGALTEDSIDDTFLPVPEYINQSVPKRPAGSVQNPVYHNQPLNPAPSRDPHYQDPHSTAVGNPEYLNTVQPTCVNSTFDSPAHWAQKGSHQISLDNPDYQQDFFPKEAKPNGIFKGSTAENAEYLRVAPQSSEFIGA
Chain of intracellular phosphorylation of EGFR (Tyr1068) in PC-9 cells (P00533 with tags, fused parts or gaps DEL746-750): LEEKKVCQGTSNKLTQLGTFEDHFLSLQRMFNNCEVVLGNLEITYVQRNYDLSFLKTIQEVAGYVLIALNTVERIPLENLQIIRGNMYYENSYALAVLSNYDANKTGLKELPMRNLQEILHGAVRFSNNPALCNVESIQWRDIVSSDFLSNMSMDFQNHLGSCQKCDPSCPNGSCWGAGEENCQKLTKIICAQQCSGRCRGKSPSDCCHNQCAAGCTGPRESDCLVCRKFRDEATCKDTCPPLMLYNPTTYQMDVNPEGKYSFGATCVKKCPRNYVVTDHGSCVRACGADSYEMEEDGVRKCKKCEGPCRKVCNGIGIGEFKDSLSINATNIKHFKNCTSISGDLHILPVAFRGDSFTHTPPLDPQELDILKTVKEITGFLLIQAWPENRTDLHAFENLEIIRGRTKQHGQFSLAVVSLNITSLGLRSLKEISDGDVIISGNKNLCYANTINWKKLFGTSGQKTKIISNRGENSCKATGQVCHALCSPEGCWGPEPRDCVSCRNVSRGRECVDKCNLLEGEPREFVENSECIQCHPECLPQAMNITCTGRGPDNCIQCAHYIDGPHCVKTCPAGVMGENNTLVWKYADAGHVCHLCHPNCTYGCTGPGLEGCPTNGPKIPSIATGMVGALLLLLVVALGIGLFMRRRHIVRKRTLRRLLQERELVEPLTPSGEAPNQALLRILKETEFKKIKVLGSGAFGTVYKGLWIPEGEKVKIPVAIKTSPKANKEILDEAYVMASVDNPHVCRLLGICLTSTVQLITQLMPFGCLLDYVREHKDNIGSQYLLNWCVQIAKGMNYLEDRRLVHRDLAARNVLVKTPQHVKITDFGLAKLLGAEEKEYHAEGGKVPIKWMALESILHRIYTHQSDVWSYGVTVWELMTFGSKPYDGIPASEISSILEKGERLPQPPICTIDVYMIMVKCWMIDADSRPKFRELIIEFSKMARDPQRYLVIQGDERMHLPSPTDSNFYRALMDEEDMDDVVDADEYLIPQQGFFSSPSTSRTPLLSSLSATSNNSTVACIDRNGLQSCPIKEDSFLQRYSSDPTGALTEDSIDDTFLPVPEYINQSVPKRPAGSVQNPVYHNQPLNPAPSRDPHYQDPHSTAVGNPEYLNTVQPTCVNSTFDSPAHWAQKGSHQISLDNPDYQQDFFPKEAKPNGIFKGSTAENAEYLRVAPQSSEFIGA
T2 sequence (P00533 with tags, fused parts or gaps DEL746-750 limits assumed): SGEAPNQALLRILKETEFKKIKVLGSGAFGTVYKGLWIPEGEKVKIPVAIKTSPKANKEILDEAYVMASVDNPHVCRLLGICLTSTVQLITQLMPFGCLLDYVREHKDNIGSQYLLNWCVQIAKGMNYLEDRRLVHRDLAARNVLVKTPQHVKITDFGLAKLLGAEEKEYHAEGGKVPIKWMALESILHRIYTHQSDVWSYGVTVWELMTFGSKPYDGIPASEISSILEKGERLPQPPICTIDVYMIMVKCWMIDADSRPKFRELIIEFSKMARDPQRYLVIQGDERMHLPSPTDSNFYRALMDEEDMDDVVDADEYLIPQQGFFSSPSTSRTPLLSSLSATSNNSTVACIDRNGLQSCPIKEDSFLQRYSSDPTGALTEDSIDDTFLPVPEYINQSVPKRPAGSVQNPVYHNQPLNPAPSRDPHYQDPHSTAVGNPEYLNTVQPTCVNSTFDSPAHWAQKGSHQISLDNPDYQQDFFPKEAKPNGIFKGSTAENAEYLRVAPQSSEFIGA

As for `C[C@H](CN1CCC1)Oc1cc(-c2cnn(C)c2)cc2ncnc(Nc3ccc4ncsc4c3)c12` [Example 394, (R)-N-(5-((1-(azetidin-1-yl)propan-2-yl)oxy)-7-(1-methyl-1H-pyrazol-4-yl)quinazolin-4-yl)benzo[d]thiazol-6-amine], the IC50 (in assay [1]; on EGFR L858R; at EGFR (d746-750)) was ≤ 10 nM each time.

`C[C@H](CN1CCOCC1)Oc1cc(-c2cnn(C)c2)cc2ncnc(Nc3ccc4ncsc4c3)c12` [Example 395, (R)-N-(7-(1-methyl-1H-pyrazol-4-yl)-5-((1-morpholinopropan-2-yl)oxy)quinazolin-4-yl)benzo[d]thiazol-6-amine]: the figures for the IC50 (in assay [1]; on EGFR L858R; on EGFR (d746-750)) were 10.1 to 50 nM, ≤ 10 nM and ≤ 10 nM, respectively.

Take `CNC[C@@H](C)Oc1cc(-c2cnn(C)c2)cc2ncnc(Nc3ccc4ncsc4c3)c12` [Example 396, (R)-N-(7-(1-methyl-1H-pyrazol-4-yl)-5-((1-(methylamino)propan-2-yl)oxy)quinazolin-4-yl)benzo[d]thiazol-6-amine]: the IC50 – broadly, the midpoint of a concentration-inhibition curve – is ≤ 10 nM in assay [1], 10.1 to 50 nM at EGFR L858R and ≤ 10 nM at EGFR (d746-750).

With `CCN1CCN(C(=O)Nc2cc3c(Nc4ccc5ncsc5c4)ncnc3cc2-c2ccn(C)n2)[C@H](C)C1` [Example 397, (R)-N-(4-(benzo[d]thiazol-6-ylamino)-7-(1-methyl-1H-pyrazol-3-yl)quinazolin-6-yl)-4-ethyl-2-methylpiperazine-1-carboxamide], the IC50 (in assay [1]; at EGFR L858R; at EGFR (d746-750)) was ≤ 10 nM in each case.

On to `CCN1CCN(C(=O)Nc2cc3c(Nc4ccc5ncsc5c4F)ncnc3cc2-c2ccn(C)n2)[C@@H](C)C1` [Example 398, (S)-4-ethyl-N-(4-((7-fluorobenzo[d]thiazol-6-yl)amino)-7-(1-methyl-1H-pyrazol-3-yl)quinazolin-6-yl)-2-methylpiperazine-1-carboxamide], for which the IC50 (in assay [1]; on EGFR L858R; on EGFR (d746-750)) was ≤ 10 nM throughout.

In the case of `C[C@H]1CN(C)CCN1C(=O)Nc1cc2c(Nc3ccc4ncsc4c3)ncnc2cc1-c1ccn(C)n1` [Example 399, (S)-N-(4-(benzo[d]thiazol-6-ylamino)-7-(1-methyl-1H-pyrazol-3-yl)quinazolin-6-yl)-2,4-dimethylpiperazine-1-carboxamide], the IC50 (in assay [1]; on EGFR L858R; on EGFR (d746-750)) was ≤ 10 nM throughout.

`COc1cc2ncnc(Nc3ccc4ncsc4c3)c2cc1NC(=O)CCN1CCCCC1` [Example 400, N-(4-(benzo[d]thiazol-6-ylamino)-7-methoxyquinazolin-6-yl)-3-(piperidin-1-yl)propanamide]: the values for the IC50 (in assay [1]; at EGFR L858R; on EGFR (d746-750)) were 10.1 to 50 nM, 10.1 to 50 nM and ≤ 10 nM, respectively.

Take `COc1cc2ncnc(Nc3ccc4ncsc4c3)c2cc1NC(=O)C1CCCN(C)C1` (stereo not drawn) [Example 401, N-(4-(benzo[d]thiazol-6-ylamino)-7-methoxyquinazolin-6-yl)-1-methylpiperidine-3-carboxamide]: the IC50 (in assay [1]; at EGFR L858R; on EGFR (d746-750)) was 10.1 to 50 nM in each case.

Turning to `COc1cc2ncnc(Nc3ccc4ncsc4c3)c2cc1NC(=O)C1CN(C)C1` [Example 402, N-(4-(benzo[d]thiazol-6-ylamino)-7-methoxyquinazolin-6-yl)-1-methylazetidine-3-carboxamide], the IC50 in assay [1] is 10.1 to 50 nM; on EGFR L858R, > 50.1 nM; on EGFR (d746-750), 10.1 to 50 nM.

Take `CC(C)Oc1cc(-c2cnn(C)c2)cc2ncnc(Nc3ccc4ncsc4c3)c12` [Example 405, N-(5-isopropoxy-7-(1-methyl-1H-pyrazol-4-yl)quinazolin-4-yl)benzo[d]thiazol-6-amine]: the concentration for half-maximal inhibition (IC50) (in assay [1]; at EGFR L858R; at EGFR (d746-750)) was ≤ 10 nM each time.

As to `Cn1cc(-c2cc(OC3COC3)c3c(Nc4ccc5ncsc5c4)ncnc3c2)cn1` [Example 406, N-(7-(1-methyl-1H-pyrazol-4-yl)-5-(oxetan-3-yloxy)quinazolin-4-yl)benzo[d]thiazol-6-amine], the IC50 (in assay [1]; on EGFR L858R; on EGFR (d746-750)) was ≤ 10 nM each time.

Consider `Cn1cc(-c2cc(OCC#N)c3c(Nc4ccc5ncsc5c4)ncnc3c2)cn1` [Example 407, 2-((4-(benzo[d]thiazol-6-ylamino)-7-(1-methyl-1H-pyrazol-4-yl)quinazolin-5-yl)oxy)acetonitrile], for which the IC50 in assay [1] was 10.1 to 50 nM; on EGFR L858R, ≤ 10 nM; at EGFR (d746-750), ≤ 10 nM.

For the molecule `Cn1cc(-c2cc(OCCN3CCC3)c3c(Nc4ccc5ncsc5c4)ncnc3c2)cn1` [Example 409, N-(5-(2-(azetidin-1-yl)ethoxy)-7-(1-methyl-1H-pyrazol-4-yl)quinazolin-4-yl)benzo[d]thiazol-6-amine], the IC50 is 10.1 to 50 nM in assay [1], 10.1 to 50 nM on EGFR L858R and ≤ 10 nM at EGFR (d746-750).

As to `Cn1cc(-c2cc(O[C@@H]3CC[C@@H](O)C3)c3c(Nc4ccc5ncsc5c4)ncnc3c2)cn1` [Example 410, (1R,3R)-3-((4-(benzo[d]thiazol-6-ylamino)-7-(1-methyl-1H-pyrazol-4-yl)quinazolin-5-yl)oxy)cyclopentan-1-ol], the IC50 (in assay [1]; on EGFR L858R; on EGFR (d746-750)) was ≤ 10 nM in each case.

Take `Cn1cc(-c2cc(O[C@@H]3CC[C@H](O)C3)c3c(Nc4ccc5ncsc5c4)ncnc3c2)cn1` [Example 411, (1S,3R)-3-((4-(benzo[d]thiazol-6-ylamino)-7-(1-methyl-1H-pyrazol-4-yl)quinazolin-5-yl)oxy)cyclopentan-1-ol]: the concentration for half-maximal inhibition (IC50) (in assay [1]; on EGFR L858R; on EGFR (d746-750)) was ≤ 10 nM each time.

`Cn1cc(-c2cc(OC3CCN(C4CCOCC4)CC3)c3c(Nc4ccc5ncsc5c4)ncnc3c2)cn1` [Example 412, N-(7-(1-methyl-1H-pyrazol-4-yl)-5-((1-(tetrahydro-2H-pyran-4-yl)piperidin-4-yl)oxy)quinazolin-4-yl)benzo[d]thiazol-6-amine]: the results for the IC50 (in assay [1]; at EGFR L858R; at EGFR (d746-750)) were 10.1 to 50 nM, 10.1 to 50 nM and ≤ 10 nM, respectively.

As to `Cn1cc(-c2cc(OCC3CCOC3)c3c(Nc4ccc5ncsc5c4)ncnc3c2)cn1` (stereo not drawn) [Example 413, N-(7-(1-methyl-1H-pyrazol-4-yl)-5-((tetrahydrofuran-3-yl)methoxy)quinazolin-4-yl)benzo[d]thiazol-6-amine], the IC50 was 10.1 to 50 nM in assay [1], ≤ 10 nM on EGFR L858R and ≤ 10 nM at EGFR (d746-750).

In the case of `Cn1cc(-c2cc(OC3CCCOC3)c3c(Nc4ccc5ncsc5c4)ncnc3c2)cn1` (stereo not drawn) [Example 414, N-(7-(1-methyl-1H-pyrazol-4-yl)-5-((tetrahydro-2H-pyran-3-yl)oxy)quinazolin-4-yl)benzo[d]thiazol-6-amine], the IC50 (in assay [1]; on EGFR L858R; on EGFR (d746-750)) was ≤ 10 nM in each case.

As to `Cn1cc(-c2cc(OC3CCOC3)c3c(Nc4ccc5ncsc5c4)ncnc3c2)cn1` (stereo not drawn) [Example 415, N-(7-(1-methyl-1H-pyrazol-4-yl)-5-((tetrahydrofuran-3-yl)oxy)quinazolin-4-yl)benzo[d]thiazol-6-amine], the IC50 in assay [1] was 10.1 to 50 nM; at EGFR L858R it was ≤ 10 nM; on EGFR (d746-750), ≤ 10 nM.

As for `CN1CCC(Oc2cc(-c3cnn(C)c3)cc3ncnc(Nc4ccc5scnc5c4)c23)CC1` [Example A03, N-(7-(1-methyl-1H-pyrazol-4-yl)-5-((1-methylpiperidin-4-yl)oxy)quinazolin-4-yl)benzo[d]thiazol-5-amine], the IC50 was 10.1 to 50 nM in assay [1], 10.1 to 50 nM at EGFR L858R and ≤ 10 nM at EGFR (d746-750).

Turning to `CN1CC[C@H](Oc2cc(-c3cnn(C)c3)cc3ncnc(Nc4ccc5ncsc5c4)c23)C[C@H]1CO` [Example A07, ((2S,4S)-4-((4-(benzo[d]thiazol-6-ylamino)-7-(1-methyl-1H-pyrazol-4-yl)quinazolin-5-yl)oxy)-1-methylpiperidin-2-yl)methanol], the IC50 in assay [1] was 10.1 to 50 nM; at EGFR L858R it was ≤ 10 nM; on EGFR (d746-750) it was ≤ 10 nM.

As to `CN1CC[C@H](Oc2cc(-c3cnn(C)c3)cc3ncnc(Nc4ccc5ncsc5c4)c23)C[C@@H]1CO` [Example A08, [(2R,4S)-4-({4-[(1,3-benzothiazol-6-yl)amino]-7-(1-methyl-1H-pyrazol-4-yl)quinazolin-5-yl}oxy)-1-methylpiperidin-2-yl]methanol], the IC50 in assay [1] is 10.1 to 50 nM; on EGFR L858R, ≤ 10 nM; on EGFR (d746-750), ≤ 10 nM.

With `Cn1cc(-c2cc(O[C@H]3CC[C@@H](N)CC3)c3c(Nc4ccc5ncsc5c4)ncnc3c2)cn1` [Example A09, N-(5-(((1s,4s)-4-aminocyclohexyl)oxy)-7-(1-methyl-1H-pyrazol-4-yl)quinazolin-4-yl)benzo[d]thiazol-6-amine], the concentration for half-maximal inhibition (IC50) (in assay [1]; on EGFR L858R; at EGFR (d746-750)) was ≤ 10 nM throughout.

Turning to `CN1CCN(CCOc2cc(OC3CCOCC3)c3c(Nc4ccc5ncsc5c4)ncnc3c2)CC1` [Example A16, N-(7-(2-(4-methylpiperazin-1-yl)ethoxy)-5-((tetrahydro-2H-pyran-4-yl)oxy)quinazolin-4-yl)benzo[d]thiazol-6-amine], the half-maximal inhibitory concentration (IC50) in assay [1] was 10.1 to 50 nM; at EGFR L858R it was 10.1 to 50 nM; on EGFR (d746-750), ≤ 10 nM.
